Results taken from patent publication US12227500B2, “Substituted pyrrolo[2,3-b]pyridines for suppressing toxic endoplasmic reticulum stress” (THE TRUSTEES OF COLUMBIA UNIVERSITY IN THE CITY OF NEW YORK, priority 2018, dated 2025).

Assays:
Assay in all cases: Radiolabeled ATP kinase assay, panel of 371 kinases (Table S6)
Format in all cases: biochemical
[1] = target: T1, panel of 371 human kinases (Homo sapiens, UniProt Q9HBY8); settings: SGK2; 0.1 μM; 10 μM ATP; read-out: % Enzyme Activity (relative to DMSO controls)
T1 construct: purchased Reaction Biology Corp
Text: (§1) ; FIG. 38C). […]. Further targeted analyses, such as genetic knock-down or knock-out, may be warranted to parse the role of these additional kinases in our model of neurodegeneration.

[2] = target: T2, panel of 371 human kinases (Homo sapiens, UniProt Q14289); settings: PYK2; 0.1 μM; 10 μM ATP; read-out: % Enzyme Activity (relative to DMSO controls)
T2 construct: purchased Reaction Biology Corp
Text: as §1

[3] = target: T3, panel of 371 human kinases (Homo sapiens, UniProt Q86UX6); settings: STK32C/YANK3; 0.1 μM; 10 μM ATP; read-out: % Enzyme Activity (relative to DMSO controls)
T3 construct: purchased Reaction Biology Corp
Text: as §1

[4] = target: T4, panel of 371 human kinases (Homo sapiens, UniProt Q04912); settings: RON/MST1R; 0.1 μM; 10 μM ATP; read-out: % Enzyme Activity (relative to DMSO controls)
T4 construct: purchased Reaction Biology Corp
Text: as §1

[5] = target: T5, panel of 371 human kinases (Homo sapiens, UniProt Q9H1R3); settings: MLCK2/MYLK2; 0.1 μM; 10 μM ATP; read-out: % Enzyme Activity (relative to DMSO controls)
T5 construct: purchased Reaction Biology Corp
Text: as §1

[6] = target: T6, panel of 371 human kinases (Homo sapiens, UniProt Q9UHD2); settings: TBK1; 0.1 μM; 10 μM ATP; read-out: % Enzyme Activity (relative to DMSO controls)
T6 construct: purchased Reaction Biology Corp
Text: as §1

[7] = target: T7, panel of 371 human kinases (Homo sapiens, UniProt Q9UQB9); settings: Aurora C; 0.1 μM; 10 μM ATP; read-out: % Enzyme Activity (relative to DMSO controls)
T7 construct: purchased Reaction Biology Corp
Text: as §1

[8] = target: T8, panel of 371 human kinases (Homo sapiens, UniProt P07948); settings: LYN; 0.1 μM; 10 μM ATP; read-out: % Enzyme Activity (relative to DMSO controls)
T8 construct: purchased Reaction Biology Corp
Text: as §1

[9] = target: T9, panel of 371 human kinases (Homo sapiens, UniProt Q9H3Y6); settings: SRMS; 0.1 μM; 10 μM ATP; read-out: % Enzyme Activity (relative to DMSO controls)
T9 construct: purchased Reaction Biology Corp
Text: as §1

[10] = target: T10, panel of 371 human kinases (Homo sapiens, UniProt O95819); settings: for remaining activity at 0.1 µM: HGK/MAP4K4, 10 μM ATP, read-out: % Enzyme Activity (relative to DMSO controls)
T10 construct: purchased Reaction Biology Corp
Text: as §1

[11] = target: T11, panel of 371 human kinases (Homo sapiens, UniProt Q86V86); settings: PIM3; 0.1 μM; 10 μM ATP; read-out: % Enzyme Activity (relative to DMSO controls)
T11 construct: purchased Reaction Biology Corp
Text: as §1

[12] = target: T12, panel of 371 human kinases (Homo sapiens, UniProt P53355); settings: DAPK1; 0.1 μM; 10 μM ATP; read-out: % Enzyme Activity (relative to DMSO controls)
T12 construct: purchased Reaction Biology Corp
Text: as §1

[13] = target: T13, panel of 371 human kinases (Homo sapiens, UniProt P53779); settings: JNK3; 0.1 μM; 10 μM ATP; read-out: % Enzyme Activity (relative to DMSO controls)
T13 construct: purchased Reaction Biology Corp
Text: as §1

[14] = target: T14, panel of 371 human kinases (Homo sapiens, UniProt P09769); settings: FGR; 0.1 μM; 10 μM ATP; read-out: % Enzyme Activity (relative to DMSO controls)
T14 construct: purchased Reaction Biology Corp
Text: as §1

[15] = target: T15, panel of 371 human kinases (Homo sapiens, UniProt P00533); settings: EGFR; 0.1 μM; 10 μM ATP; read-out: % Enzyme Activity (relative to DMSO controls)
T15 construct: purchased Reaction Biology Corp
Text: as §1

[16] = target: T16, panel of 371 human kinases (Homo sapiens, UniProt P52564); settings: MKK6; 0.1 μM; 10 μM ATP; read-out: % Enzyme Activity (relative to DMSO controls)
T16 construct: purchased Reaction Biology Corp
Text: as §1

[17] = target: T17, panel of 371 human kinases (Homo sapiens, UniProt Q9H792); settings: PEAK1; 0.1 μM; 10 μM ATP; read-out: % Enzyme Activity (relative to DMSO controls)
T17 construct: purchased Reaction Biology Corp
Text: as §1

[18] = target: T18, panel of 371 human kinases (Homo sapiens, UniProt O94806); settings: PKCnu/PRKD3; 0.1 μM; 10 μM ATP; read-out: % Enzyme Activity (relative to DMSO controls)
T18 construct: purchased Reaction Biology Corp
Text: as §1

[19] = target: T19, panel of 371 human kinases (Homo sapiens, UniProt P49761); settings: CLK3; 0.1 μM; 10 μM ATP; read-out: % Enzyme Activity (relative to DMSO controls)
T19 construct: purchased Reaction Biology Corp
Text: as §1

[20] = target: T20, panel of 371 human kinases (Homo sapiens, UniProt Q16816); settings: PHKg1; 0.1 μM; 10 μM ATP; read-out: % Enzyme Activity (relative to DMSO controls)
T20 construct: purchased Reaction Biology Corp
Text: as §1

[21] = target: T21, panel of 371 human kinases (Homo sapiens, UniProt Q9NRH2); settings: SNRK; 0.1 μM; 10 μM ATP; read-out: % Enzyme Activity (relative to DMSO controls)
T21 construct: purchased Reaction Biology Corp
Text: as §1

[22] = target: T22, panel of 371 human kinases (Homo sapiens, UniProt Q86UE8); settings: TLK2; 0.1 μM; 10 μM ATP; read-out: % Enzyme Activity (relative to DMSO controls)
T22 construct: purchased Reaction Biology Corp
Text: as §1

[23] = target: T23, panel of 371 human kinases (Homo sapiens, UniProt Q05397); settings: FAK/PTK2; 0.1 μM; 10 μM ATP; read-out: % Enzyme Activity (relative to DMSO controls)
T23 construct: purchased Reaction Biology Corp
Text: as §1

[24] = target: T24, panel of 371 human kinases (Homo sapiens, UniProt Q9BWU1); settings: CDK19/cyclin C; 0.1 μM; 10 μM ATP; read-out: % Enzyme Activity (relative to DMSO controls)
T24 construct: purchased Reaction Biology Corp
Text: as §1

T10 sequence (O95819 whole entry): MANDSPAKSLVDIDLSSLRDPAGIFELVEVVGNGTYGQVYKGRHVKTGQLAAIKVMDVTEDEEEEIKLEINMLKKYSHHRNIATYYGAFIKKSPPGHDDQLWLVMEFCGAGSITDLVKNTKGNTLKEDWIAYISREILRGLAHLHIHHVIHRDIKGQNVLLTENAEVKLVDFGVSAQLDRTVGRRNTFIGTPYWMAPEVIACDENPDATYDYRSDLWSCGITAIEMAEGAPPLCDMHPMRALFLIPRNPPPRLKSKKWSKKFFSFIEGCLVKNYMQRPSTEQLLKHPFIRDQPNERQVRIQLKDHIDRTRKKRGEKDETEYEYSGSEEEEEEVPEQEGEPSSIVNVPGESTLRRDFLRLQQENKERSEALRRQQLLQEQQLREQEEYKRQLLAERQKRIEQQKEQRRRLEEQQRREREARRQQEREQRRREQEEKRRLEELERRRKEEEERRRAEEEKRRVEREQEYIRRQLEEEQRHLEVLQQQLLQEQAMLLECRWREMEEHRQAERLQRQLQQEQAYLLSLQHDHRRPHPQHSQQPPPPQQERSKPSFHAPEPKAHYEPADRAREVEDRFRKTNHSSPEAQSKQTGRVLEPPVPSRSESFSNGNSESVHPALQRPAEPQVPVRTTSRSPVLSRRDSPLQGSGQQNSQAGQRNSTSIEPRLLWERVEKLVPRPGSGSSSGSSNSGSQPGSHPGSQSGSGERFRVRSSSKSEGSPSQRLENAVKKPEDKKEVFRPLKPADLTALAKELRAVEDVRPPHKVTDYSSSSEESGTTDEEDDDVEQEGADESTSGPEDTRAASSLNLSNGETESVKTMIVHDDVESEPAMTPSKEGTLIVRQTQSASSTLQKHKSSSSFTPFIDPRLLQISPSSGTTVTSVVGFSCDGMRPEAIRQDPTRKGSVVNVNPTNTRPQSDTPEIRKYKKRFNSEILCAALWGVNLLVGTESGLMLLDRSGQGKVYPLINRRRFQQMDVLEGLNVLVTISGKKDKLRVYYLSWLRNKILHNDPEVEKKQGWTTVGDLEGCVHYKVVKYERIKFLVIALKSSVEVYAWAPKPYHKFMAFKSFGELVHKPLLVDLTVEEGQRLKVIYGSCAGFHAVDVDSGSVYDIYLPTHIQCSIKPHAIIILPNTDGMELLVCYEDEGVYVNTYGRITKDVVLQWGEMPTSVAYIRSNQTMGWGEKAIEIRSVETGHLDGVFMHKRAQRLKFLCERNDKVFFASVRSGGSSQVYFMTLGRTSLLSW
T5 sequence (Q9H1R3 whole entry): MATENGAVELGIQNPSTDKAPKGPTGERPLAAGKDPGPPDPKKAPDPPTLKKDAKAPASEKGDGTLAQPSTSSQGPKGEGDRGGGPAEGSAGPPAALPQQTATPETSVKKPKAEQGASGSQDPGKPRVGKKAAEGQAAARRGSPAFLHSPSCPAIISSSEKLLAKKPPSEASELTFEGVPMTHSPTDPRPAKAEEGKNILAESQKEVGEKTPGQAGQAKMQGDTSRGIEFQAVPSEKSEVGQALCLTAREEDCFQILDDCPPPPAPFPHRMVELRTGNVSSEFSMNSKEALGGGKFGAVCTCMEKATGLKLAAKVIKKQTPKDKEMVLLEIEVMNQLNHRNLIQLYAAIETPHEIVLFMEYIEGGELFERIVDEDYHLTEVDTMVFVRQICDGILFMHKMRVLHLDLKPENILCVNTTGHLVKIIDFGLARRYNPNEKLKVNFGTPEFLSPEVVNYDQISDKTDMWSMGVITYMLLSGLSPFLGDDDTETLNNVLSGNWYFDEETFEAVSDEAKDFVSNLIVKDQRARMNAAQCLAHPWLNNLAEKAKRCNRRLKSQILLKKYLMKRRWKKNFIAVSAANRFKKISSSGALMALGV
T22 sequence (Q86UE8 whole entry): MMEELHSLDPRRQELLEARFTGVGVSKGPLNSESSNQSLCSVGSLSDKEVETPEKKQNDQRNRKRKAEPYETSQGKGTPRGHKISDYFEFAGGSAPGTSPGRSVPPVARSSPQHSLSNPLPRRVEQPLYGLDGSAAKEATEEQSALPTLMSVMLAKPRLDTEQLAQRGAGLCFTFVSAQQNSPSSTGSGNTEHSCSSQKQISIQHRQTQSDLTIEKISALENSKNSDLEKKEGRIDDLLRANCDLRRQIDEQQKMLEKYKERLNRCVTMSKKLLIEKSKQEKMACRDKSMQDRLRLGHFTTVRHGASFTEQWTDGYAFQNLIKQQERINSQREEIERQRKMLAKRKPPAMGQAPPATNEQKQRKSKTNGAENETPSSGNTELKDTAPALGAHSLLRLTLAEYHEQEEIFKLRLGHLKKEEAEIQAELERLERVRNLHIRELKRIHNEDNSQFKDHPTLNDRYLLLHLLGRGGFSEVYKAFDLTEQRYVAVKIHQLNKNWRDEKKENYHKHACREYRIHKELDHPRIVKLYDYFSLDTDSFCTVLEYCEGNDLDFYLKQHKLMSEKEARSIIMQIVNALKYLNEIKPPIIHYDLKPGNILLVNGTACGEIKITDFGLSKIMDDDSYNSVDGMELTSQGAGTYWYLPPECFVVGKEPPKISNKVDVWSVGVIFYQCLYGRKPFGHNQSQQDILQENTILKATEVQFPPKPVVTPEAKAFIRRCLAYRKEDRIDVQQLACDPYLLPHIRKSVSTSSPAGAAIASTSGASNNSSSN
T12 sequence (P53355 whole entry): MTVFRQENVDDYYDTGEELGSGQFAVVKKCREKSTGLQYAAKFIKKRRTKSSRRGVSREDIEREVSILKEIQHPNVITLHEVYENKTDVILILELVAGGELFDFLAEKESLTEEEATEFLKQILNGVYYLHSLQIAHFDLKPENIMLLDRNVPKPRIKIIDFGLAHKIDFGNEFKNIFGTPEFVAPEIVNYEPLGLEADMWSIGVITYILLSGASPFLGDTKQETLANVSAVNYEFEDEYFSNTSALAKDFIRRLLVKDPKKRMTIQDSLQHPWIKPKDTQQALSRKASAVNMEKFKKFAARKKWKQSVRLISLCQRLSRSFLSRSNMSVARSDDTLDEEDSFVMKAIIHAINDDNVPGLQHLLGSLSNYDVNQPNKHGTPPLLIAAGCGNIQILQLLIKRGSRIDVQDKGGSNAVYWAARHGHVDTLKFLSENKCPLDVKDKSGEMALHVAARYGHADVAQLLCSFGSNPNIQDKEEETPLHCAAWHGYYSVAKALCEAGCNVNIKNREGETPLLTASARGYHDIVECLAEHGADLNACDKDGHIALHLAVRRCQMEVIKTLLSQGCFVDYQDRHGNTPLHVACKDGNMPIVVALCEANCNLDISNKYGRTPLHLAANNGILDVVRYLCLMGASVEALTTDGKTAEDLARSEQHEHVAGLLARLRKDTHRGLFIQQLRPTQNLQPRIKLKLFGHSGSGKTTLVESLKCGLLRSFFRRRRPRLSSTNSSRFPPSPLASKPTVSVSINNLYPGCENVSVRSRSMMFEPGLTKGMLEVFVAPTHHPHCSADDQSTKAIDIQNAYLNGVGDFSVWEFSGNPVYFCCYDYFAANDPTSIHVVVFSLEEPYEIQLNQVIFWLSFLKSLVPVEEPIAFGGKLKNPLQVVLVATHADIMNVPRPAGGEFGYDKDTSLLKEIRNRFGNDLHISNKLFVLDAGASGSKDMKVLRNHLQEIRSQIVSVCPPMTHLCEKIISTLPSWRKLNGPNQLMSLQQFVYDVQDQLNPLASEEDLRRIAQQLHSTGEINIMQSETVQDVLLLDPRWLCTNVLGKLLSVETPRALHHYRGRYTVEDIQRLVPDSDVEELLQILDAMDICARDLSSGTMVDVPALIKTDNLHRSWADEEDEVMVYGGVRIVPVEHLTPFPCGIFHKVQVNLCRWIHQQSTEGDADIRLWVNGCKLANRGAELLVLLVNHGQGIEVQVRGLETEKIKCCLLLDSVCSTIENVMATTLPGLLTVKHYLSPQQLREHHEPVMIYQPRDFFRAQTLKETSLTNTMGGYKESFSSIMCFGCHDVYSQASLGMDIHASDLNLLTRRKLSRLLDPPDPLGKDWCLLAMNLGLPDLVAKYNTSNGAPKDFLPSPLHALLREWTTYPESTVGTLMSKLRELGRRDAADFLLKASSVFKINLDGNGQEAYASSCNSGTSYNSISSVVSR
T8 sequence (P07948 whole entry): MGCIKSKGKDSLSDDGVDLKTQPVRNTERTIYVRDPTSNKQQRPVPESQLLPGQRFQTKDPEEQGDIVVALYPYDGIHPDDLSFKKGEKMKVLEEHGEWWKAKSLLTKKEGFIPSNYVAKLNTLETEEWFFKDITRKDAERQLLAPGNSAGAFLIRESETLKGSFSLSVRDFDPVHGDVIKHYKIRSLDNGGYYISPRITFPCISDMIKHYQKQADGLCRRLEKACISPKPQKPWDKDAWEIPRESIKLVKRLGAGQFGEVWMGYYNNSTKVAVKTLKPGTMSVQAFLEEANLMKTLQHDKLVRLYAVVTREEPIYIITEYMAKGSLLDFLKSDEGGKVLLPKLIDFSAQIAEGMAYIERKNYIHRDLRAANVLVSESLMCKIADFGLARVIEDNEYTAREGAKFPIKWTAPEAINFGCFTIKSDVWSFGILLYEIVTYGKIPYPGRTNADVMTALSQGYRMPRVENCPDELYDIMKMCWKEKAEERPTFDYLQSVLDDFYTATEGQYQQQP
T7 sequence (Q9UQB9 whole entry): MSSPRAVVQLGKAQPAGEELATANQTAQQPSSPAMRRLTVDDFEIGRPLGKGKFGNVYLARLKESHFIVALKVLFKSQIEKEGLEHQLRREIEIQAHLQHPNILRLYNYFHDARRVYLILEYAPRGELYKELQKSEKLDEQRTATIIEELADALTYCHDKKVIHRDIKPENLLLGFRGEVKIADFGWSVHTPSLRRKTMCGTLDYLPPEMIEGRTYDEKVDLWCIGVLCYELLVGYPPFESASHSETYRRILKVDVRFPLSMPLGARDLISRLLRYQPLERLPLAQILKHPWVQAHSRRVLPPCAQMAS

SMILES | remaining activity at 0.1 µM [1] [%] | remaining activity at 0.1 µM [2] [%] | remaining activity at 0.1 µM [3] [%] | remaining activity at 0.1 µM [4] [%] | remaining activity at 0.1 µM [5] [%] | remaining activity at 0.1 µM [6] [%] | remaining activity at 0.1 µM [7] [%] | remaining activity at 0.1 µM [8] [%] | remaining activity at 0.1 µM [9] [%] | remaining activity at 0.1 µM [10] [%] | remaining activity at 0.1 µM [11] [%] | remaining activity at 0.1 µM [12] [%] | remaining activity at 0.1 µM [13] [%] | remaining activity at 0.1 µM [14] [%] | remaining activity at 0.1 µM [15] [%] | remaining activity at 0.1 µM [16] [%] | remaining activity at 0.1 µM [17] [%] | remaining activity at 0.1 µM [18] [%] | remaining activity at 0.1 µM [19] [%] | remaining activity at 0.1 µM [20] [%] | further results
CN1CCN(Cc2ccc(-c3cnc4[nH]cc(-c5ccc6[nH]ccc6c5)c4c3)cc2)CC1 [Compound 1, 3-(1H-Indol-5-yl)-5-(4-((4-methylpiperazin-1-yl)methyl)phenyl)-1H-pyrrolo[2,3-b]pyridine, reference compound] | 92.8 | 84.8 | 98.3 | 91.6 | 66 | 82.8 | 110 | 90.3 | 104 | 20.2 | 92.9 | 96.3 | 89.5 | 97.2 | 103 | 116 | 109 | 29.1 | 95.3 | 37.6 | remaining activity at 0.1 µM [21]: 102%; remaining activity at 0.1 µM [22]: 93%; remaining activity at 0.1 µM [23]: 86.3%; remaining activity at 0.1 µM [24]: 94.9%
OCCN1CCN(Cc2ccc(-c3cnc4[nH]cc(-c5cccc(Cl)c5)c4c3)cc2)CC1 [Compound 12k, 2-(4-(4-(3-(3-Chlorophenyl)-1H-pyrrolo[2,3-b]pyridin-5-yl)benzyl)piperazin-1-yl)ethan-1-ol] | 96.7 | 89.2 | 93 | 94.1 | 78.9 | 75.2 | 97.3 | 99.3 | 103 | 1.35 | 106 | 95.4 | 94.4 | 84.2 | 96.2 | 97.9 | 101 | 13.6 | 91 | 74.5 | fold change in HGK activity following 12k exposure relative to 1 ([10]; 0.025 μM): 14.92 fold; remaining activity at 0.1 µM [21]: 43.1%; remaining activity at 0.1 µM [22]: 95.2%; remaining activity at 0.1 µM [23]: 88.5%; remaining activity at 0.1 µM [24]: 64.8%
